The subject of the test is male, Sprague-Dawley rats. Briefly: Oral delivery of insulin in rats: change in whole blood glucose after insulin plus delivery agent. In kind it is in vivo, rat. As to conditions: oral gavage. The protocol: Human recombinant insulin (ICN Biomedicals, Aurora, Ohio) was dissolved in deionized water (ph ˜6.5) to obtain stock insulin solutions having a concentration of 15 mg/ml. 3-[4-(cyclopropylmethoxy)phenyl]propanoic acid (Emisphere Technologies, Tarrytown, N.Y.) was dissolved in deionized water to obtain a 200 mg/ml delivery agent solution. The free acid form of delivery agent as converted to the sodium salt by adding one equivalent of sodium hydroxide. Solutions were vortexted, sonicated, and heated. If necessary, additional sodium hydroxide was added in μl quantities to achieve uniform solubility in the delivery agent solutions. Solutions were adjusted to a pH of 3.5-8.5 by the addition of either hydrochloric acid or sodium hydroxide, as appropriate. The insulin stock solution was then added to the delivery agent solutions to obtain an administration solution ultimately having an insulin concentration of 0.5 mg/ml. After solubilization and drug addition, administration solutions were brought to a final volume by the addition of deionized water.
Insulin was administered to male, Sprague-Dawley rats either alone or in combination with delivery agent by oral gavage (PO). Typically, rats were fasted for 18-24 hours prior to dosing. A Rusch 8 French catheter was cut to 11 cm in length and adapted to fit a 1 ml syringe. The syringe was filled with dosing solution and the catheter was inserted into the rat mouth and fed down the esophagus (10.0 cm). The dosing solution was delivered by pressing the syringe plunger while holding the rat in an upright position. The doses of delivery agent and
[…] The dose volume was 1 ml/kg. The weight of the rats in this invention ranges from 250 to 300 grams. The rat was weighted prior to the test and the dose volume was adjusted accordingly.
Immediate to each blood sampling point, rats were exposed briefly (˜10 seconds) to carbon dioxide until prostrate. A 77-mm capillary tube was inserted into the retroorbital sinus. Typically, blood samples were collected prior to dosing (time=0) and at 15, 30, 45, and 60 minutes after dosing.
To determine the pharmacodynamic response, a hand-held glucometer (OneTouch Ultra, LifeScan—Johnson & Johnson, New Brunswick, N.J.) was used to measure whole blood glucose after administration of insulin or insulin and delivery agent. After discarding the first drop of blood, a small sample (˜5-10 μls) was touched to the glucometer test strip (OneTouch Ultra, LifeScan) and a blood glucose reading was generated by the meter. Typically, samples were collected prior to dosing (time 0) and at 15, 30, 45, and 60 minutes after dosing.

The mark [1] stands for this setting: 15 min., insulin/delivery agent = 0.5 mg/200 mg per kg.
[2] abbreviates: 30 min., insulin/delivery agent = 0.5 mg/200 mg per kg.
Setting [3] is: 45 min., insulin/delivery agent = 0.5 mg/200 mg per kg.
[4] abbreviates: 60 min., insulin/delivery agent = 0.5 mg/200 mg per kg.
[5] abbreviates: time 0, insulin/delivery agent = 0.5 mg/200 mg per kg.

Results on 11 compounds are retold here after patent US8383852B2, “Compounds having a cyclic moiety and compositions for delivering active agents” (Emisphere Technologies, Inc., priority 2007, dated 2013).

In the case of `COc1cc(CC(=O)O)ccc1OCC1CCC1` [Compound 3, [4-(cyclobutylmethoxy)-3-methoxyphenyl]acetic acid], the “Percent change in whole blood glucose from baseline (negative = reduction)” value (shortened to “Percent change … (negative = reduction)”) under setting [1] was −15.04%; the “Percent change … (negative = reduction)” value under setting [2] is −22.90%; the “Percent change … (negative = reduction)” value under setting [3] was −21.04%; the “Percent change … (negative = reduction)” value under setting [4] was −19.74%; the “Percent change … (negative = reduction)” value under setting [5] amounted to 6.88%.

As to `O=C(O)Cc1ccc(OCC2CC2)cc1` [Compound 5, [4-(cyclopropylmethoxy)phenyl]acetic acid], the “Percent change … (negative = reduction)” value under setting [1] is −17.53%; the “Percent change … (negative = reduction)” value under setting [2] is on record as −26.944%; the “Percent change … (negative = reduction)” value under setting [3] was −22.92%; the “Percent change … (negative = reduction)” value under setting [4] was −18.62%; the “Percent change … (negative = reduction)” value under setting [5] is reported as −1.91%.

Consider `O=C(O)c1ccccc1OCC1CC1` [Compound 9, 2-(cyclopropylmethoxy)benzoic acid], for which the “Percent change … (negative = reduction)” value under setting [1] is −1.29%; the “Percent change … (negative = reduction)” value under setting [2] is −6.99%; the “Percent change … (negative = reduction)” value under setting [3] is recorded as −11.40%; the “Percent change … (negative = reduction)” value under setting [4] is listed as −11.75%; the “Percent change … (negative = reduction)” value under setting [5] is reported as −1.59%.

`O=C(O)c1ccccc1OC1CCCC1` [Compound 10, 2-(cyclopentyloxy)benzoic acid]: the “Percent change … (negative = reduction)” value under setting [1] is −6.94%; the “Percent change … (negative = reduction)” value under setting [2] was −25.22%; the “Percent change … (negative = reduction)” value under setting [3] is recorded as −29.27%; the “Percent change … (negative = reduction)” value under setting [4] is −29.91%; the “Percent change … (negative = reduction)” value under setting [5] is “+16.39%”.

Consider `O=C(O)c1ccccc1OCC1CCCCC1` [Compound 11, 2-(cyclohexylmethoxy)benzoic acid], for which the “Percent change … (negative = reduction)” value reads like this: under setting [1], −4.82%; under setting [2], −6.23%; under setting [3], −19.71%; under setting [4], −19.54%; under setting [5], −1.27%.

Regarding `COc1cc(CC(=O)O)ccc1OC1CCCC1` [Compound 7, [4-(cyclopentyloxy)-3-methoxyphenyl]acetic acid], the “Percent change … (negative = reduction)” value runs as follows: under setting [1], −7.15%; under setting [2], −17.37%; under setting [3], −12.75%; under setting [4], −12.77%; under setting [5], 11.87%.

Regarding `COc1cc(CC(=O)O)ccc1OCC1CC1` [Compound 8, [4-(cyclopropylmethoxy)-3-methoxyphenyl]acetic acid], the “Percent change … (negative = reduction)” value was −1.61% under setting [1]; −14.21% under setting [2]; −16.12% under setting [3]; −18.19% under setting [4]; 18.75% under setting [5].

As for `O=C(O)c1ccc(OCC2CC2)cc1` [Compound 4, 4-(cyclopropylmethoxy)benzoic acid], the “Percent change … (negative = reduction)” value was −11.80% under setting [1]; −32.15% under setting [2]; −21.14% under setting [3]; −16.78% under setting [4]; 1.72% under setting [5].

Turning to `O=C(O)c1ccccc1OCC1CCC1` [Compound 6, 2-(cyclobutylmethoxy)benzoic acid], the “Percent change … (negative = reduction)” value reads like this: under setting [1], −9.25%; under setting [2], −20.51%; under setting [3], −2.61%; under setting [4], −2.75%; under setting [5], 6.37%.

Turning to `O=C(O)c1ccc(OCC2CCC2)cc1` [Compound 2, 4-(cyclobutylmethoxy)benzoic acid], the “Percent change … (negative = reduction)” value is, setting by setting: under setting [1], −20.04%; under setting [2], −32.2%; under setting [3], −32.51%; under setting [4], −19.95%; under setting [5], 7.51%.

Turning to `O=C(O)CCc1ccc(OCC2CC2)cc1` [Compound 1, 3-[4-(cyclopropylmethoxy)phenyl]propanoic acid], the “Percent change … (negative = reduction)” value is given as −17.26% under setting [1]; −38.35% under setting [2]; −43.75% under setting [3]; −42.48% under setting [4]; −4.64% under setting [5].
